Measurements reported in patent publication US12358915B2, “METTL3 inhibitory compounds” (STORM THERAPEUTICS LTD., priority 2019, dated 2025).
Where two headings read alike, the source gives them in different places.

Key:
METTL3/14 = biological target: T1, METTL3/14 (Homo sapiens, UniProt Q86U44); assay: METTL3/14 methyltransferase assay (METTL3_14 RFMS, RapidFire mass spectrometry); type: biochemical; conditions: read-out: METTL3_14 RFMS IC50;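 further: recombinant His-tagged METTL3 with FLAG-tagged METTL14 from baculovirus, SAH product quantified by mass spectrometry against isotope-labelled internal standards, 60 min at room temperature, scaled between no-RNA and DMSO-only wells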
T1 construct: The enzyme used was full-length his-tagged METTL3; His; made in house
T1 sequence (Q86U44 whole entry): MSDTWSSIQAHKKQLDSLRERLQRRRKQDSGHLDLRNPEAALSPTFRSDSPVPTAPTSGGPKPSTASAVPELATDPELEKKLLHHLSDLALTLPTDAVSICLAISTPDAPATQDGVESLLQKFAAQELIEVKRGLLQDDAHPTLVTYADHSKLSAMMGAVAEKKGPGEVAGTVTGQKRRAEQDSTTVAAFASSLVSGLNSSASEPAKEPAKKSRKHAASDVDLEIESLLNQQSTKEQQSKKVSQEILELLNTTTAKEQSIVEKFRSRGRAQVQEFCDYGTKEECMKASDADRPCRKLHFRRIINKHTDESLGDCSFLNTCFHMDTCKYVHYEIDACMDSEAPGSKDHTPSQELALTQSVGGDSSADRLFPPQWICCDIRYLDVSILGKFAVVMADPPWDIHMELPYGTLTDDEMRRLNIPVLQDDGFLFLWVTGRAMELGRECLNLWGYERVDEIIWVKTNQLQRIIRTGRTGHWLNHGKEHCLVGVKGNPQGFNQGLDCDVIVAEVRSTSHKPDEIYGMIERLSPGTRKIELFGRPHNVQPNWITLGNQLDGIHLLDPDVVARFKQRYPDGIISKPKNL
T1 sequence (Q9HCE5 whole entry partner): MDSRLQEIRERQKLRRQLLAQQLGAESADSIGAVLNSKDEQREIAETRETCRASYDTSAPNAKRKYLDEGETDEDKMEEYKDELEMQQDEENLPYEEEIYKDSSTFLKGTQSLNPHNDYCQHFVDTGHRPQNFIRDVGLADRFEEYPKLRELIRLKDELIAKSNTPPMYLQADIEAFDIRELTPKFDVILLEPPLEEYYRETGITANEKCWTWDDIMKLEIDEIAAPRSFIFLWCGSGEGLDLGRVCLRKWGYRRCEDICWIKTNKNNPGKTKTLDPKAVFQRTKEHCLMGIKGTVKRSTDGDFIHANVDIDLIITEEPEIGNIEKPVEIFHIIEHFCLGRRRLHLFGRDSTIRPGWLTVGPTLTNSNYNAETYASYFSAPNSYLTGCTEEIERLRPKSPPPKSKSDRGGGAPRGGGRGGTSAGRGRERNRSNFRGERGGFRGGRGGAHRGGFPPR

MOLM-13 cells = assay: MOLM13 CTG - analysis of cell proliferation (Cell Titre Glo); type: cell-based; conditions: Homo sapiens, geometric mean, read-out: CTG MOLM13 cells IC50 GEOMEAN
Caov-3 cells = assay: Caov3 CTG assay - proliferation assay; type: cell-based; conditions: Homo sapiens, 120 hours treatment, 30 μM top concentration, CellTiter-Glo, geometric mean, read-out: CTG Caov3 cells IC50 GEOMEAN
Method: Upon treatment, Coav-3 cells were incubated for 10 min at RT with the CellTiter-Glo reagent (G7571, Promega). Measurement of the luminescence signal was performed on a microplate reader (Ensight, PerkinElmer).

[1] = 5 nM METTL3/14, 0.2 μM RNA substrate, 0.5 μM SAM, lower limit of the assay IC50=5 nM, Compounds 63-265
[2] = 5 nM METTL3/14, 0.2 μM RNA substrate, 0.5 μM SAM, lower limit of the assay IC50=5 nM, Compounds 266-351

| SMILES | IC50 (METTL3/14; [1]) [nM] | IC50 (MOLM-13 cells) [nM] | IC50 (METTL3/14; [2]) [nM] | IC50 (METTL3/14) [nM] | IC50 (Caov-3 cells) [nM] |
| --- | --- | --- | --- | --- | --- |
| O=C(NCc1cn2cc(CNCCC3CC(F)(F)C3)ccc2n1)c1cc(=O)n2ccccc2n1 [Compound 213, N-{[6-({[2-(3,3-difluorocyclo-butyl)ethyl]amino}methyl)imidazo[1,2-a]pyridin-2-yl]methyl}-4-oxo-4H-pyrido [1,2-a]pyrimidine-2-carboxamide] | 41.8 | ≥ 30000 | – | – | – |
| O=c1cc(-c2cn(Cc3cn4cc(CNCC5CCC5)ccc4n3)nn2)nc2ccccn12 [Example 342, 2-[1-[[6-[(cyclobutylmethylamino)methyl]imidazo[1,2-a]pyridin-2-yl]methyl]triazol-4-yl]pyrido[1,2-a]pyrimidin-4-one] | – | 6710 | 18.4 | – | – |
| O=C(NCc1cn2cc(CNCC3CC(F)(F)C3)ccc2n1)c1cc(=O)n2ccccc2n1 [Compound 83, N-{[6-({[(3,3-difluoro-cyclobutyl)methyl]amino}methyl)imidazo[1,2-a]pyridin-2-yl]methyl}-4-oxo-4H-pyrido [1,2-a]pyrimidine-2-carboxamide] | 10.6 | 4120 | – | – | – |
| Oc1cc(-c2cn(Cc3cn4cc(CNCC5CCC5)ccc4n3)nn2)c2cn[nH]c2c1 [Example 266, 4-[1-[[6-[(cyclobutylmethylamino)methyl]imidazo[1,2-a]pyridin-2-yl]methyl]triazol-4-yl]-1H-indazol-6-ol] | – | 11100 | – | ≤ 4.23 | – |
| COC1(CNCc2ccc3nc(CNC(=O)c4cc(=O)n5ccccc5n4)cn3c2)CCC1 [Compound 273, N-[[6-[[(1-methoxycyclobutyl)methylamino]methyl]imidazo[1,2-a]pyridin-2-yl]methyl]-4-oxo-pyrido[1,2-a]pyrimidine-2-carboxamide] | – | 9020 | 27.7 | – | – |
| O=C(NCc1cn2cc(CNCCC3CC3)ccc2n1)c1cc(=O)c2ccccc2o1 [Compound 218] | 26.4 | 4710 | – | – | – |
| c1cc2[nH]ncc2c(-c2cn(Cc3cn4cc(CNCC5CCCCC5)ccc4n3)nn2)n1 [Example 325, N-(cyclohexylmethyl)-1-[2-[[4-(1H-pyrazolo[4,3-c]pyridin-4-yl)triazol-1-yl]methyl]imidazo[1,2-a]pyridin-6-yl]methanamine] | – | 7500 | 14.5 | – | – |
| CC(C)(C)C(C)(C)NCc1ccc2nc(CNC(=O)c3cc(=O)n4ccccc4n3)cn2c1 [Compound 195, 4-oxo-N-[(6-{[(2,3,3-trimethylbutan-2-yl)amino]methyl}imidazo [1,2-a]pyridin-2-yl)methyl]-4H-pyrido[1,2-a]pyrimidine-2-carboxamide] | 32.4 | 9770 | – | – | – |
| O=C(NCc1cn2cc(CNCCC3CCC3)ccc2n1)c1cc(=O)n2ccccc2n1 [Compound 286, N-[[6-[(2-cyclobutylethylamino)methyl]imidazo[1,2-a]pyridin-2-yl]methyl]-4-oxo-pyrido[1,2-a]pyrimidine-2-carboxamide] | – | 12300 | 19.3 | – | – |
| O=C(O)c1cc(-c2cn(Cc3cn4cc(CNCC5CCC5)ccc4n3)nn2)c2cn[nH]c2c1 [Example 297, 4-[1-[[6-[(cyclobutylmethylamino)methyl]imidazo[1,2-a]pyridin-2-yl]methyl]triazol-4-yl]-1H-indazole-6-carboxylic acid] | – | ≥ 30000 | 737 | – | – |
| OC1(CNCc2ccc3nc(Cn4cc(-c5cc(F)cc6[nH]ncc56)nn4)cn3c2)CCC1 [Example 319, 1-[[[2-[[4-(6-fluoro-1H-indazol-4-yl)triazol-1-yl]methyl]imidazo[1,2-a]pyridin-6-yl]methylamino]methyl]cyclobutanol] | – | 4380 | 7.84 | – | – |
| O=C(NCc1cn2cc(CNCC3(O)CCCC3)ccc2n1)c1cc(=O)n2ccccc2n1 [Compound 284, N-[[6-[[(1-hydroxycyclopentyl)methylamino]methyl]imidazo[1,2-a]pyridin-2-yl]methyl]-4-oxo-pyrido[1,2-a]pyrimidine-2-carboxamide] | – | 7400 | 11.5 | – | – |
| N#CCC(NCC1CCC1)c1ccc2nc(CNC(=O)c3cc(=O)n4ccccc4n3)cn2c1 (centres unmarked) [Example 330, N-[[6-[2-cyano-1-(cyclobutylmethylamino)ethyl]imidazo[1,2-a]pyridin-2-yl]methyl]-4-oxo-pyrido[1,2-a]pyrimidine-2-carboxamide] | – | ≥ 30000 | 202 | – | – |
| CC(C)(C)CNCc1ccc2nc(Cn3cc(-c4ccc5[nH]ncc5c4)nn3)cn2c1 [Example 254, (2,2-dimethylpropyl)[(2-{[4-(1H-indazol-5-yl)-1H-1,2,3-triazol-1-yl]methyl}imidazo[1,2-a]pyridin-6-yl)methyl]amine] | – | ≥ 30000 | – | 10100 | – |
| O=C(NCc1cn2cc(CCNCc3ccccc3)ccc2n1)c1cc(=O)n2ccccc2n1 [Compound 235, N-({6-[2-(benzylamino)ethyl]imidazo[1,2-a]pyridin-2-yl}methyl)-4-oxo-4H-pyrido[1,2-a]pyrimidine-2-carboxamide] | 111 | ≥ 30000 | – | – | – |
| CCCCNCc1ccc2nc(CNC(=O)c3cc(=O)n4ccccc4n3)cn2c1 [Compound 283, N-[[6-(butylaminomethyl)imidazo[1,2-a]pyridin-2-yl]methyl]-4-oxo-pyrido[1,2-a]pyrimidine-2-carboxamide] | – | 10700 | 29.3 | – | – |
| O=C(NCc1cn2cc(CNCC3(O)CCC3)ccc2n1)c1cc(=O)n2ccccc2n1 [Compound 288, N-[[6-[[(1-hydroxycyclobutyl)methylamino]methyl]imidazo[1,2-a]pyridin-2-yl]methyl]-4-oxo-pyrido[1,2-a]pyrimidine-2-carboxamide] | – | 7320 | 13.9 | – | – |

Stronger by IC50 (MOLM-13 cells), values ahead:

| IC50 (METTL3/14; [1]) [nM] | IC50 (MOLM-13 cells) [nM] | IC50 (METTL3/14; [2]) [nM] | IC50 (METTL3/14) [nM] | SMILES | IC50 (Caov-3 cells) [nM] |
| --- | --- | --- | --- | --- | --- |
| 6.25 | 1820 | – | – | O=C(NCc1cn2cc(CNCC3CCC3)ccc2n1)c1cc(=O)n2ccccc2n1 [Example 212, N-[[6-[(cyclobutylmethylamino)methyl]imidazo[1,2-a]pyridin-2-yl]methyl]-4-oxo-pyrido[1,2-a]pyrimidine-2-carboxamide] | 320 |
| – | 1170 | 6.1 | – | COc1ccc2[nH]ncc2c1-c1cn(Cc2cn3cc(CNCC4CCC4)ccc3n2)nn1 [Example 271, N-(cyclobutylmethyl)-1-[2-[[4-(5-methoxy-1H-indazol-4-yl)triazol-1-yl]methyl]imidazo[1,2-a]pyridin-6-yl]methanamine] | 558 |
| – | 657 | 6.1 | – | O=C(NCc1cn2cc(CNCC34CC(F)(C3)C4)ccc2n1)c1cc(=O)n2ccccc2n1 [Compound 276, N-[[6-[[(3-fluoro-1-bicyclo[1.1.1]pentanyl)methylamino]methyl]imidazo[1,2-a]pyridin-2-yl]methyl]-4-oxo-pyrido[1,2-a]pyrimidine-2-carboxamide] | 248 |
| 8.14 | 1480 | – | – | Brc1cc(-c2cn(Cc3cn4cc(CNCC5CCCCC5)ccc4n3)nn2)c2cn[nH]c2c1 [Example 226, [(2-{[4-(6-bromo-1H-indazol-4-yl)-1H-1,2,3-triazol-1-yl]methyl}imidazo[1,2-a]pyridin-6-yl)methyl](cyclohexylmethyl)amine] | – |
| 6.69 | 649 | – | – | CC(C)(C)CNCc1ccc2nc(Cn3cc(-c4cc(Br)cc5[nH]ncc45)nn3)cn2c1 [Example 225, [(2-{[4-(6-bromo-1H-indazol-4-yl)-1H-1,2,3-triazol-1-yl]methyl}imidazo[1,2-a]pyridin-6-yl)methyl](2,2-dimethylpropyl)amine] | – |
| – | 362 | – | ≤ 4.44 | Brc1cc(-c2cn(Cc3cn4cc(CNCC5CCC5)ccc4n3)nn2)c2cn[nH]c2c1 [Example 296, 1-[2-[[4-(6-bromo-1H-indazol-4-yl)triazol-1-yl]methyl]imidazo[1,2-a]pyridin-6-yl]-N-(cyclobutylmethyl)methanamine] | – |
| – | 1180 | 5.67 | – | Fc1cc(-c2cn(Cc3cn4cc(CNCC5CCC5)ccc4n3)nn2)c2cn[nH]c2c1 [Example 318, N-(cyclobutylmethyl)-1-[2-[[4-(6-fluoro-1H-indazol-4-yl)triazol-1-yl]methyl]imidazo[1,2-a]pyridin-6-yl]methanamine] | – |
| 12.4 | 2460 | – | – | CC1(C)CCN(Cc2ccc3nc(CNC(=O)c4cc(=O)n5ccccc5n4)cn3c2)CC1 [Compound 193, N-({6-[(4,4-dimethylpiperidin-1-yl)methyl]imidazo[1,2-a]pyridin-2-yl}methyl)-4-oxo-4H-pyrido[1,2-a]pyrimidine-2-carboxamide] | – |
| – | 3280 | 8.86 | – | c1cc2[nH]ncc2c(-c2cn(Cc3cn4cc(CNCC5CCC5)ccc4n3)nn2)n1 [Example 324, N-(cyclobutylmethyl)-1-[2-[[4-(1H-pyrazolo[4,3-c]pyridin-4-yl)triazol-1-yl]methyl]imidazo[1,2-a]pyridin-6-yl]methanamine] | – |
| – | 998 | 5.8 | – | OC1(CNCc2ccc3nc(Cn4cc(-c5cc(Br)cc6[nH]ncc56)nn4)cn3c2)CCCCC1 [Example 294, 1-[[[2-[[4-(6-bromo-1H-indazol-4-yl)triazol-1-yl]methyl]imidazo[1,2-a]pyridin-6-yl]methylamino]methyl]cyclohexanol] | – |
| 244 | 2800 | – | – | CN(Cc1ccc2nc(CNC(=O)c3cc(=O)n4ccccc4n3)cn2c1)CC1CCCCC1 [Compound 114, N-[(6-{[(cyclohexyl-methyl)(methyl)amino]methyl}imidazo [1,2-a]pyridin-2-yl)methyl]-4-oxo-4H-pyrido [1,2-a]pyrimidine-2-carboxamide] | – |
